Patent US20210213137A1, “COMPOSITIONS TO TREAT ULTRAVIOLET (UV)-INDUCED SKIN INJURY” (Mayo Foundation for Medical Education and Research, priority 2016, published 2021)

Assays:
[1] = tested on: mice skin; assay: UVB-induced skin injury in mice (chronic and acute UVB exposure); format: in vivo; conditions: topical administration; summary statement
Protocol: (§1) FIG. 2A. […] FIG. 2B. […] 1×1 cm are on the right flank of the mice were exposed to UVB 3 times/week for 3 weeks (n=5). Either vehicle or GNP-VEGF antibody was applied to the area 2 hours after exposure. FIG. 2C. […] All treatments were applied 2 hours post-UVB exposure. Data representative of 2 experiments, n=5. Ear thickness was measured 2 days after UVB exposure. Avastin® and 2C3 are VEGF antibodies. FIG. 2D. Topical administration of GNP-VEGF antibody or small molecular inhibitor (SMI) of VEGF signaling, sorafenib, reduces edema. All treatments were applied 2 hours post UVB exposure. Data representative of 2 experiments, n=5. Ear thickness was measured 2 days after UVB exposure.
Vascular endothelial growth factor (VEGF) was induced by UVB light and works concomitantly with ROS to induce the pathway, and was identified as an upstream regulator of the inflammation pathway.

[2] = tested on: primary melanoma tumor; assay: Mouse model of melanoma with chronic UVB exposure; format: in vivo, mice; conditions: summary statement
Protocol: FIG. 3A. […] For Tumor+UV group * p<0.05, ** p<0.01 compared to tumor only, § p<0.05 compared to Tumor+UV+Tx group. No significant difference between tumor only and tumor+UV+Tx group at all time points. Data based on 3 experiments (n=5). FIG. 3B. […] FIG. 3C. Quantification of vessel density via CD31 staining, a marker of vessels.
FIG. 4A. Schematic diagram of experimental setup corresponding to FIG. 3A. All mice were injected with tumor on their right flank on Day 0. Luciferase imaging was done on day 5. Based on luciferase imaging data, mice were assigned to different groups (no UV—tumor only, tumor+UV, and tumor+UV+Tx). Starting on day 6, 1×1 cm area on the tumor was exposed to UVB. Vehicle or treatment was applied 2 hours post UVB exposure. A subset of the mice (n=4) was sacrificed on day 6, 10, 14 and 19 for analysis. FIG. 4B. Survival curve of mice in a separate analogous tumor study to the one represented in FIG. 3A.

[3] = tested on: mouse ears; assay: UVB-induced ear edema (ear thickness) in mice; format: in vivo
Text: FIG. 1A. Timeline of the acute and chronic effects of UV-induced skin injury. FIG. 1B. Quantitative PCR was used to measure induction of VEGF transcript in mouse skin upon exposure to various doses of UVB (n=3 mice/group). FIG. 1C. Representative photographs of mouse ears two days after UVB exposure. UVB induces angiogenesis in the ear of mice. FIG. 1D. Systemic administration of VEGF antibody 2C3 reduces edema as shown by 50% decrease in ear thickness (p=0.0101, n=4).
as §1

| Compound | skin injury following UVB exposure [1] | melanoma tumor growth [2] | acute effects of UV-induced skin damage ([3]; topical administration, mice) | edema (ear thickness) ([3]; topical, 2 hours post UVB exposure, ear thickness 2 days after UVB, n=5, FIG. 2D) |
| --- | --- | --- | --- | --- |
| bevacizumab [Avastin®] | prevented and/or reduced skin injury | prevented and/or reduced melanoma tumor growth |  |  |
| CNC(=O)c1cc(Oc2ccc(NC(=O)Nc3ccc(Cl)c(C(F)(F)F)c3)cc2)ccn1 [sorafenib] | prevented and/or reduced skin injury |  | inhibited the acute effects of UV-induced skin damage | reduces edema |
